Experimental data as given in patent publication US20090030073A1, “PLANT-DERIVED THERAPEUTIC AGENT FOR MALIGNANT” (priority 2006, published 2009).

System: neuroblastoma cell strains IMR-32, SK—N—SH, and NB-39
Test: MTT assay, anti-malignant-tumor effect on neuroblastoma cell strains
Assay type: cell-based
Conditions: 48 hours incubation
Experimental: The anti-malignant-tumor effect of compounds (1), (2a), (2b), and (2c) on neuroblastoma cell strains IMR-32, SK—N—SH, and NB-39 was investigated using the MTT assay.
Specifically, each type of cells was seeded onto a 96-well plate so that the cell density was adjusted to 1×10^4 cells/well, and each drug compound was added to the wells 24 hours after seeding, followed by incubation under 5%-CO2 at 37° C. for 48 hours. Subsequently, an MTT solution was added to the wells, and blue formazan formed three hours after addition was well-mixed through pipetting. The absorbance of each well was measured at 570 nm (top) and 655 nm (bottom), and the survival cell rate with respect to the control group was calculated. In this assay, formation of blue formazan caused by activity of mitochondria is observed only when cells survive.

| Structure (SMILES) | cytotoxicity to neuroblastoma cells (survival cell rate, FIGS. 2 to 13) |
| --- | --- |
| C=CCOc1c(OC)cc2c(c1OC)O[C@H](c1ccc3c(c1)OCO3)[C@H]2C [compound (1)] | intense cytotoxicity |
| C=CC[C@]12CC=CC(=O)[C@@]1(O)O[C@H](c1ccc(OC)c(OC)c1)[C@H]2C [compound (2a)] | intense cytotoxicity |
| C=CC[C@]12CC=CC(=O)[C@@]1(O)OC(c1ccc3c(c1)OCO3)[C@H]2C (stereo partly shown) [compound (2b), ferrearin C] | intense cytotoxicity |
| C=CC[C@]12CC=CC(=O)[C@@]1(O)O[C@H](c1cc(OC)c3c(c1)OCO3)[C@H]2C [compound (2c), ferrearin G] | intense cytotoxicity |
